Where two headings read alike, the source gives them in different places.
Key:
[1] = target: T1, Grp1 PH domain (Homo sapiens, UniProt O43739); parameters: method as in PMID 26977543; settings: same method; ref [34]; cited from earlier work
T1 construct: UniProtKB: O43739) PH domain (residues 264–392) were cloned into a pOPINJ vector; His6-GST (tandem), followed by HRV-3C site (N, cleaved yes); made in house; host or cells: E. coli (same protocol as kindlin-3 PH, B834)
T1 sequence (O43739 264-392): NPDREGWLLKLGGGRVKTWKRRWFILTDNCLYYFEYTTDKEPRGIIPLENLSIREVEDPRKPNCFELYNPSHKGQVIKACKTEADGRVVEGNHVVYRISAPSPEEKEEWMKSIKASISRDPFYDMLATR

[2] = tested on: T2, kindlin-3 PH domain, two lysines within the β1–β2 loop mutated; assay: SPR, immobilised kindlin-3 PH domain with two β1–β2 loop lysines mutated, lipid nanodiscs as analyte; format: binding, mouse; settings: site-directed mutagenesis of two lysines within the β1–β2 loop
T2 construct: kindlin-3 PH domain (residues 344–479); His6-GST (tandem), followed by HRV-3C site (N, cleaved yes); made in house; host or cells: BirA+ Escherichia coli strain
Description: (§1) The observation in MD simulation that multiple phosphoinositol molecules may bind to more than one site on a single PH domain (Figures 2 and 3) led us to attempt further verification of this mode of interaction experimentally. […] To study the effect of phosphatidylinositol lipid concentrations on their binding by PH domains, we performed the SPR experiments in an inverted set-up. The biotinylated PH domain was immobilised onto the sensor chip and the nanodiscs were prepared as the analyte.
(§2) SPR experiments were performed using a Biacore T200 machine (GE Healthcare Life Sciences) at 20°C in 10 mM HEPES (pH 7.5) and 150 mM NaCl. PtdIns(4,5)P2 (C-45B6a) and PtdIns(3,4,5)P3 (C-39B6a) were purchased from Echelon Biosciences. The BIAcore CM5 chip (GE Healthcare Life Sciences) was firstly covered with streptavidin following the manufacturer's instructions before the biotinylated PIPs or biotinylated proteins were immobilised. The analyte with twofold serial dilutions was applied at a flow rate of 20 µl/min for 180 s followed by 600 s of dissociation time. The biosensor chip was regenerated after each sample injection cycle with a different buffer in the two experimental set-ups: in the case of immobilised PIPs on the sensor chip, 0.1% SDS was used; when the PH domain was immobilised, then the surface was regenerated by 2 M MgCl2. […]

[3] = target: T3, kindlin-3 PH domain (Mus musculus, UniProt Q8K1B8); assay: SPR, immobilised biotinylated lipid headgroup as ligand, kindlin-3 PH domain WT as analyte; format: binding
T3 construct: kindlin-3 PH domain (residues 344–479); His6-GST (tandem), followed by HRV-3C site (N, cleaved yes); made in house; host or cells: BirA+ Escherichia coli strain
T3 sequence (Q8K1B8 344-479): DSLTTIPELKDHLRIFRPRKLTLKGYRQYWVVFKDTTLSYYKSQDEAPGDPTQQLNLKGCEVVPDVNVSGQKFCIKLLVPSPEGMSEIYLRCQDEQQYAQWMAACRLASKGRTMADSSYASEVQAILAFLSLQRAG
From the text: To verify the potential interaction between clustered phosphatidylinositol phosphates and the kindlin-3 PH domain observed in our MD simulations, we conducted surface plasmon resonance (SPR) experiments. Firstly, a biotinylated inositol phosphate was immobilised onto a streptavidin-derivatised sensor chip, as in previous studies. The use of streptavidin-mediated immobilisation meant that the distance separating individual lipids would be larger than the size of the tetrameric streptavidin, and therefore than the PH domain itself, meaning that one PH domain would be able to bind no more than one lipid headgroup simultaneously, imposing one-to-one binding in the interaction (Figure 4A). […] We note that, in the MD simulation with the mutated form of the kindlin-3 PH domain, the protein is capable of binding to the bilayer in a similar orientation to the wild type (WT); however, in many simulations, it quickly dissociates from the bilayer (Supplementary Figure S8). A naturally occurred IPRR (isoleucine–proline–arginine–arginine) insertion in the β1–β2 loop of kindlin-3 has been reported to disable integrin activation and thus lymphocyte adhesion and migration.
SPR experiments were performed using a Biacore T200 machine (GE Healthcare Life Sciences) at 20°C in 10 mM HEPES (pH 7.5) and 150 mM NaCl. PtdIns(4,5)P2 (C-45B6a) and PtdIns(3,4,5)P3 (C-39B6a) were purchased from Echelon Biosciences. The BIAcore CM5 chip (GE Healthcare Life Sciences) was firstly covered with streptavidin following the manufacturer's instructions before the biotinylated PIPs or biotinylated proteins were immobilised. The analyte with twofold serial dilutions was applied at a flow rate of 20 µl/min for 180 s followed by 600 s of dissociation time. The biosensor chip was regenerated after each sample injection cycle with a different buffer in the two experimental set-ups: in the case of immobilised PIPs on the sensor chip, 0.1% SDS was used; when the PH domain was immobilised, then the surface was regenerated by 2 M MgCl2. The data were fit with a 1:1 Langmuir adsorption model (B = BmaxC/(KD + C), where B is the response of bound analyte and C is the concentration of the analyte in the sample to calculate the dissociation constant (KD) using the BIAanalysis software. The molecular mass of the nanodiscs for SPR analysis was estimated to be 120 kDa.

[4] = target: T3, kindlin-3 PH domain; assay: SPR, immobilised biotinylated kindlin-3 PH domain as ligand, lipid nanodiscs as analyte; format: binding
Description: as §1
POPC and POPE (1-palmitoyl-2-oleoyl-sn-glycero-3-phosphoethanolamine) were purchased from Avanti Polar Lipids, and PtdIns(4,5)P2 (P-4516), PtdIns(3,4,5)P3 (P-3924), and Ins(1,3,4,5)P4 (Q-1345) were purchased from Echelon Biosciences. Nanodiscs were prepared following standard protocols. Briefly, to prepare nandiscs containing 5% (mol/mol) PtdIns(3,4,5)P3, a mixture of 200 µl of 10 mg/ml POPC, 200 µl of 10 mg/ml POPE together with 670 µl of 0.5 mg/ml PtdIns(3,4,5)P3 in chloroform were dried on a clean Pyrex tube under argon. Chloroform residue was then removed by desiccation in a desiccator attached on a VARIO-SP diaphragm pump (Vacuubrand). The lipid film was subsequently hydrated by adding 1 ml of solubilisation buffer [20 mM HEPES (pH 7.5), 150 mM NaCl, and 17 mM Na-cholate] followed by vigorous votexing. […]

[5] = target: T1, Grp1 PH domain; assay: SPR, immobilised lipid headgroup as ligand, Grp1 PH domain as analyte; format: binding
From the text: We further asked whether our observations are specific to the kindlin-3 PH domain (and similar domains) or could also be shown for PH domains which are already known to bind to inositol phosphate species in a classical, 1:1 interaction mode. If they could be shown for such well-characterised domains, then our results with the kindlin-3 PH domain would seem questionable. […] So, in the case of Grp1, there is only a five times difference in affinity between immobilised lipid headgroups and whole lipids in a lipid nanodisc (rather than the ∼100× enhancement observed with the kindlin-3 PH domain).
as §2, with “time.” for “time. The biosensor chip was regenerated after each sample injection cycle with a different buffer in the two experimental set-ups: in the case of immobilised PIPs on the sensor chip, 0.1% SDS was used; when the PH domain was immobilised, then the surface was regenerated by 2 M MgCl2.”

[6] = immobilised headgroup on streptavidin chip, WT PH domain as analyte, 20°C, 10 mM HEPES pH 7.5, 150 mM NaCl, 1:1 Langmuir fit, read-out: dissociation constant (KD)

Kd ([3]; immobilised headgroup on streptavidin chip, WT PH domain as analyte, 20°C, 10 mM HEPES pH 7.5, 150 mM NaCl, 1:1 Langmuir fit, listed as PIP3, read-out: dissociation constant (KD)) | Kd [3, 6] | nanodisc binding to the PH domain (in words) ([4]; PtdIns(3,4,5)P3 composition reduced to 1% of nanodisc lipids) | Bmax ([5]; immobilised PtdIns(3,4,5)P3 headgroup) | Kd ([5]; immobilised headgroup) | Kd ([3]; immobilised headgroup, PH domain as analyte, as given in the abstract, read-out: affinity (KD)) | nanodisc binding to the PH domain (in words) ([4]; inositol phosphate lipid 5% of total lipids in nanodisc) | Substance | PMF well depth [1] | nanodisc binding to the PH domain (in words) [2]
~300 µM | 300 µM | abolishes nanodisc binding | 7150 RU | 2.8 ± 0.4 µM | – | – | PtdIns(3,4,5)P3 | -5.3 kcal/mol | abolishes nanodisc binding
– | 1100 µM | – | – | – | 1000 µM | no affinity | PtdIns(4,5)P2 | -3.8 kcal/mol | –
